{"source": "ChEMBL document CHEMBL3272010", "about": "“Antimycotic imidazoles. 3. Synthesis and antimycotic properties of 1-[2-(aryloxyalkyl)-2-phenylethyl]-1H-imidazoles” (1977)", "data": [{"tested_on": "Microsporum canis", "assay": "Antifungal activity against Microsporum canis assessed as lowest dose required to total inhibition of fungal growth", "type": "functional", "units": {"GI": "µg/mL"}, "values": [{"smiles": "Clc1ccc(C(CCOc2ccccc2Br)Cn2ccnc2)c(Cl)c1.O=C(O)C(=O)O", "note": "(stereo not given)", "GI": 100}, {"smiles": "COc1ccc(OCCCC(Cn2ccnc2)c2ccc(Cl)cc2Cl)cc1.O=C(O)C(=O)O", "note": "(stereo not given)", "GI": 10}, {"smiles": "Clc1ccc(C(COc2ccccc2Cl)Cn2ccnc2)c(Cl)c1.O=[N+]([O-])O", "note": "(stereo not given)", "GI": 10}, {"smiles": "Clc1ccc(C(COc2ccccc2Cl)Cn2ccnc2)cc1.O=[N+]([O-])O", "note": "(stereo not given)", "GI": 100}, {"smiles": "Clc1ccc(OCCC(Cn2ccnc2)c2ccc(Cl)cc2Cl)cc1.O=[N+]([O-])O", "note": "(stereo not given)", "GI": 10}]}, {"tested_on": "Trichophyton mentagrophytes", "assay": "Antifungal activity against Trichophyton mentagrophytes assessed as lowest dose required to total inhibition of fungal growth", "type": "functional", "units": {"GI": "µg/mL"}, "values": [{"smiles": "Clc1ccc(C(CCOc2ccccc2Br)Cn2ccnc2)c(Cl)c1.O=C(O)C(=O)O", "note": "(stereo not given)", "GI": "<1"}, {"smiles": "COc1ccc(OCCCC(Cn2ccnc2)c2ccc(Cl)cc2Cl)cc1.O=C(O)C(=O)O", "note": "(stereo not given)", "GI": "<1"}, {"smiles": "Clc1ccc(C(COc2ccccc2Cl)Cn2ccnc2)c(Cl)c1.O=[N+]([O-])O", "note": "(stereo not given)", "GI": "<1"}, {"smiles": "Clc1ccc(C(COc2ccccc2Cl)Cn2ccnc2)cc1.O=[N+]([O-])O", "note": "(stereo not given)", "GI": "<1"}, {"smiles": "Clc1ccc(OCCC(Cn2ccnc2)c2ccc(Cl)cc2Cl)cc1.O=[N+]([O-])O", "note": "(stereo not given)", "GI": "<1"}]}, {"tested_on": "Trichophyton rubrum", "assay": "Antifungal activity against Trichophyton rubrum assessed as lowest dose required to total inhibition of fungal growth", "type": "functional", "units": {"GI": "µg/mL"}, "values": [{"smiles": "Clc1ccc(C(CCOc2ccccc2Br)Cn2ccnc2)c(Cl)c1.O=C(O)C(=O)O", "note": "(stereo not given)", "GI": "<1"}, {"smiles": "COc1ccc(OCCCC(Cn2ccnc2)c2ccc(Cl)cc2Cl)cc1.O=C(O)C(=O)O", "note": "(stereo not given)", "GI": "<1"}, {"smiles": "Clc1ccc(C(COc2ccccc2Cl)Cn2ccnc2)c(Cl)c1.O=[N+]([O-])O", "note": "(stereo not given)", "GI": "<1"}, {"smiles": "Clc1ccc(C(COc2ccccc2Cl)Cn2ccnc2)cc1.O=[N+]([O-])O", "note": "(stereo not given)", "GI": 10}, {"smiles": "Clc1ccc(OCCC(Cn2ccnc2)c2ccc(Cl)cc2Cl)cc1.O=[N+]([O-])O", "note": "(stereo not given)", "GI": "<1"}]}, {"tested_on": "Cryptococcus neoformans", "assay": "Antifungal activity against Cryptococcus neoformans assessed as lowest dose required to total inhibition of fungal growth", "type": "functional", "units": {"GI": "µg/mL"}, "values": [{"smiles": "Clc1ccc(C(CCOc2ccccc2Br)Cn2ccnc2)c(Cl)c1.O=C(O)C(=O)O", "note": "(stereo not given)", "GI": "<1"}, {"smiles": "COc1ccc(OCCCC(Cn2ccnc2)c2ccc(Cl)cc2Cl)cc1.O=C(O)C(=O)O", "note": "(stereo not given)", "GI": "<1"}, {"smiles": "Clc1ccc(C(COc2ccccc2Cl)Cn2ccnc2)c(Cl)c1.O=[N+]([O-])O", "note": "(stereo not given)", "GI": "<1"}, {"smiles": "Clc1ccc(C(COc2ccccc2Cl)Cn2ccnc2)cc1.O=[N+]([O-])O", "note": "(stereo not given)", "GI": "<1"}, {"smiles": "Clc1ccc(OCCC(Cn2ccnc2)c2ccc(Cl)cc2Cl)cc1.O=[N+]([O-])O", "note": "(stereo not given)", "GI": "<1"}]}, {"tested_on": "Candida tropicalis", "assay": "Antifungal activity against Candida tropicalis assessed as lowest dose required to total inhibition of fungal growth", "type": "functional", "units": {"GI": "µg/mL"}, "values": [{"smiles": "Clc1ccc(C(CCOc2ccccc2Br)Cn2ccnc2)c(Cl)c1.O=C(O)C(=O)O", "note": "(stereo not given)", "GI": ">100"}, {"smiles": "COc1ccc(OCCCC(Cn2ccnc2)c2ccc(Cl)cc2Cl)cc1.O=C(O)C(=O)O", "note": "(stereo not given)", "GI": ">100"}, {"smiles": "Clc1ccc(C(COc2ccccc2Cl)Cn2ccnc2)c(Cl)c1.O=[N+]([O-])O", "note": "(stereo not given)", "GI": ">100"}, {"smiles": "Clc1ccc(C(COc2ccccc2Cl)Cn2ccnc2)cc1.O=[N+]([O-])O", "note": "(stereo not given)", "GI": ">100"}, {"smiles": "Clc1ccc(OCCC(Cn2ccnc2)c2ccc(Cl)cc2Cl)cc1.O=[N+]([O-])O", "note": "(stereo not given)", "GI": ">100"}]}, {"tested_on": "Candida albicans", "assay": "Antifungal activity against Candida albicans assessed as lowest dose required to total inhibition of fungal growth", "type": "functional", "units": {"GI": "µg/mL"}, "values": [{"smiles": "Clc1ccc(C(CCOc2ccccc2Br)Cn2ccnc2)c(Cl)c1.O=C(O)C(=O)O", "note": "(stereo not given)", "GI": ">100"}, {"smiles": "COc1ccc(OCCCC(Cn2ccnc2)c2ccc(Cl)cc2Cl)cc1.O=C(O)C(=O)O", "note": "(stereo not given)", "GI": 10}, {"smiles": "Clc1ccc(C(COc2ccccc2Cl)Cn2ccnc2)c(Cl)c1.O=[N+]([O-])O", "note": "(stereo not given)", "GI": 100}, {"smiles": "Clc1ccc(C(COc2ccccc2Cl)Cn2ccnc2)cc1.O=[N+]([O-])O", "note": "(stereo not given)", "GI": 100}, {"smiles": "Clc1ccc(OCCC(Cn2ccnc2)c2ccc(Cl)cc2Cl)cc1.O=[N+]([O-])O", "note": "(stereo not given)", "GI": 10}]}, {"tested_on": "Mucor", "assay": "Antifungal activity against Mucor species assessed as lowest dose required to total inhibition of fungal growth", "type": "functional", "units": {"GI": "µg/mL"}, "values": [{"smiles": "Clc1ccc(C(CCOc2ccccc2Br)Cn2ccnc2)c(Cl)c1.O=C(O)C(=O)O", "note": "(stereo not given)", "GI": ">100"}, {"smiles": "COc1ccc(OCCCC(Cn2ccnc2)c2ccc(Cl)cc2Cl)cc1.O=C(O)C(=O)O", "note": "(stereo not given)", "GI": 100}, {"smiles": "Clc1ccc(C(COc2ccccc2Cl)Cn2ccnc2)c(Cl)c1.O=[N+]([O-])O", "note": "(stereo not given)", "GI": ">100"}, {"smiles": "Clc1ccc(C(COc2ccccc2Cl)Cn2ccnc2)cc1.O=[N+]([O-])O", "note": "(stereo not given)", "GI": 100}, {"smiles": "Clc1ccc(OCCC(Cn2ccnc2)c2ccc(Cl)cc2Cl)cc1.O=[N+]([O-])O", "note": "(stereo not given)", "GI": 10}]}, {"tested_on": "Aspergillus fumigatus", "assay": "Antifungal activity against Aspergillus fumigatus assessed as lowest dose required to total inhibition of fungal growth", "type": "functional", "units": {"GI": "µg/mL"}, "values": [{"smiles": "Clc1ccc(C(CCOc2ccccc2Br)Cn2ccnc2)c(Cl)c1.O=C(O)C(=O)O", "note": "(stereo not given)", "GI": ">100"}, {"smiles": "COc1ccc(OCCCC(Cn2ccnc2)c2ccc(Cl)cc2Cl)cc1.O=C(O)C(=O)O", "note": "(stereo not given)", "GI": 10}, {"smiles": "Clc1ccc(C(COc2ccccc2Cl)Cn2ccnc2)c(Cl)c1.O=[N+]([O-])O", "note": "(stereo not given)", "GI": 100}, {"smiles": "Clc1ccc(C(COc2ccccc2Cl)Cn2ccnc2)cc1.O=[N+]([O-])O", "note": "(stereo not given)", "GI": ">100"}, {"smiles": "Clc1ccc(OCCC(Cn2ccnc2)c2ccc(Cl)cc2Cl)cc1.O=[N+]([O-])O", "note": "(stereo not given)", "GI": 100}]}, {"tested_on": "Sporothrix schenckii", "assay": "Antifungal activity against Sporothrix schenckii assessed as lowest dose required to total inhibition of fungal growth", "type": "functional", "units": {"GI": "µg/mL"}, "values": [{"smiles": "Clc1ccc(C(CCOc2ccccc2Br)Cn2ccnc2)c(Cl)c1.O=C(O)C(=O)O", "note": "(stereo not given)", "GI": 10}, {"smiles": "COc1ccc(OCCCC(Cn2ccnc2)c2ccc(Cl)cc2Cl)cc1.O=C(O)C(=O)O", "note": "(stereo not given)", "GI": "<1"}, {"smiles": "Clc1ccc(C(COc2ccccc2Cl)Cn2ccnc2)c(Cl)c1.O=[N+]([O-])O", "note": "(stereo not given)", "GI": 10}, {"smiles": "Clc1ccc(C(COc2ccccc2Cl)Cn2ccnc2)cc1.O=[N+]([O-])O", "note": "(stereo not given)", "GI": 10}, {"smiles": "Clc1ccc(OCCC(Cn2ccnc2)c2ccc(Cl)cc2Cl)cc1.O=[N+]([O-])O", "note": "(stereo not given)", "GI": 10}]}, {"tested_on": "Saprolegnia", "assay": "Antifungal activity against Saprolegnia species assessed as lowest dose required to total inhibition of fungal growth", "type": "functional", "units": {"GI": "µg/mL"}, "values": [{"smiles": "Clc1ccc(C(CCOc2ccccc2Br)Cn2ccnc2)c(Cl)c1.O=C(O)C(=O)O", "note": "(stereo not given)", "GI": 100}, {"smiles": "COc1ccc(OCCCC(Cn2ccnc2)c2ccc(Cl)cc2Cl)cc1.O=C(O)C(=O)O", "note": "(stereo not given)", "GI": "<1"}, {"smiles": "Clc1ccc(C(COc2ccccc2Cl)Cn2ccnc2)c(Cl)c1.O=[N+]([O-])O", "note": "(stereo not given)", "GI": 100}, {"smiles": "Clc1ccc(C(COc2ccccc2Cl)Cn2ccnc2)cc1.O=[N+]([O-])O", "note": "(stereo not given)", "GI": ">100"}, {"smiles": "Clc1ccc(OCCC(Cn2ccnc2)c2ccc(Cl)cc2Cl)cc1.O=[N+]([O-])O", "note": "(stereo not given)", "GI": 10}]}, {"tested_on": "Phialophora verrucosa", "assay": "Antifungal activity against Phialophora verrucosa assessed as lowest dose required to total inhibition of fungal growth", "type": "functional", "units": {"GI": "µg/mL"}, "values": [{"smiles": "Clc1ccc(C(CCOc2ccccc2Br)Cn2ccnc2)c(Cl)c1.O=C(O)C(=O)O", "note": "(stereo not given)", "GI": 100}, {"smiles": "COc1ccc(OCCCC(Cn2ccnc2)c2ccc(Cl)cc2Cl)cc1.O=C(O)C(=O)O", "note": "(stereo not given)", "GI": 10}, {"smiles": "Clc1ccc(C(COc2ccccc2Cl)Cn2ccnc2)c(Cl)c1.O=[N+]([O-])O", "note": "(stereo not given)", "GI": 100}, {"smiles": "Clc1ccc(C(COc2ccccc2Cl)Cn2ccnc2)cc1.O=[N+]([O-])O", "note": "(stereo not given)", "GI": ">100"}, {"smiles": "Clc1ccc(OCCC(Cn2ccnc2)c2ccc(Cl)cc2Cl)cc1.O=[N+]([O-])O", "note": "(stereo not given)", "GI": 100}]}, {"tested_on": "Erysipelothrix rhusiopathiae", "assay": "Antibaterial activity against Erysipelothrix insidiosa assessed as lowest dose required to total inhibition of bacterial growth", "type": "functional", "units": {"GI": "µg/mL"}, "values": [{"smiles": "Clc1ccc(C(CCOc2ccccc2Br)Cn2ccnc2)c(Cl)c1.O=C(O)C(=O)O", "note": "(stereo not given)", "GI": "<1"}, {"smiles": "COc1ccc(OCCCC(Cn2ccnc2)c2ccc(Cl)cc2Cl)cc1.O=C(O)C(=O)O", "note": "(stereo not given)", "GI": "<1"}, {"smiles": "Clc1ccc(C(COc2ccccc2Cl)Cn2ccnc2)c(Cl)c1.O=[N+]([O-])O", "note": "(stereo not given)", "GI": "<1"}, {"smiles": "Clc1ccc(C(COc2ccccc2Cl)Cn2ccnc2)cc1.O=[N+]([O-])O", "note": "(stereo not given)", "GI": 1}, {"smiles": "Clc1ccc(OCCC(Cn2ccnc2)c2ccc(Cl)cc2Cl)cc1.O=[N+]([O-])O", "note": "(stereo not given)", "GI": "<1"}]}, {"tested_on": "Staphylococcus haemolyticus", "assay": "Antibaterial activity against Staphylococcus haemolyticus assessed as lowest dose required to total inhibition of bacterial growth", "type": "functional", "units": {"GI": "µg/mL"}, "values": [{"smiles": "Clc1ccc(C(CCOc2ccccc2Br)Cn2ccnc2)c(Cl)c1.O=C(O)C(=O)O", "note": "(stereo not given)", "GI": 10}, {"smiles": "COc1ccc(OCCCC(Cn2ccnc2)c2ccc(Cl)cc2Cl)cc1.O=C(O)C(=O)O", "note": "(stereo not given)", "GI": 100}, {"smiles": "Clc1ccc(C(COc2ccccc2Cl)Cn2ccnc2)c(Cl)c1.O=[N+]([O-])O", "note": "(stereo not given)", "GI": 1}, {"smiles": "Clc1ccc(C(COc2ccccc2Cl)Cn2ccnc2)cc1.O=[N+]([O-])O", "note": "(stereo not given)", "GI": 10}, {"smiles": "Clc1ccc(OCCC(Cn2ccnc2)c2ccc(Cl)cc2Cl)cc1.O=[N+]([O-])O", "note": "(stereo not given)", "GI": 1}]}, {"tested_on": "Streptococcus pyogenes", "assay": "Antibaterial activity against Streptococcus pyogenes assessed as lowest dose required to total inhibition of bacterial growth", "type": "functional", "units": {"GI": "µg/mL"}, "values": [{"smiles": "Clc1ccc(C(CCOc2ccccc2Br)Cn2ccnc2)c(Cl)c1.O=C(O)C(=O)O", "note": "(stereo not given)", "GI": "<1"}, {"smiles": "COc1ccc(OCCCC(Cn2ccnc2)c2ccc(Cl)cc2Cl)cc1.O=C(O)C(=O)O", "note": "(stereo not given)", "GI": "<1"}, {"smiles": "Clc1ccc(C(COc2ccccc2Cl)Cn2ccnc2)c(Cl)c1.O=[N+]([O-])O", "note": "(stereo not given)", "GI": "<1"}, {"smiles": "Clc1ccc(C(COc2ccccc2Cl)Cn2ccnc2)cc1.O=[N+]([O-])O", "note": "(stereo not given)", "GI": 1}, {"smiles": "Clc1ccc(OCCC(Cn2ccnc2)c2ccc(Cl)cc2Cl)cc1.O=[N+]([O-])O", "note": "(stereo not given)", "GI": "<1"}]}]}
